Laboratory results taken from patent publication US10314819B2, “Solid state forms of Eluxadoline” (TEVA PHARMACEUTICALS INTERNATIONAL GMBH, priority 2015, dated 2019).
Read-outs that look alike come from different tables or passages of the source.

Legend:
Type in all cases: physicochemical
[1] = Polymorph stability on storage at various relative humidity (PXRD)
Procedure: Sample after being powdered in a mortar and pestle is applied directly on a silicon plate holder. The X-ray powder diffraction pattern was measured with Philips X'Pert PRO X-ray powder diffractometer, equipped with Cu irradiation source=1.54184 Å(Ångström), X'Celerator (2.022° 2θ) detector. Scanning parameters: angle range: 3-40 deg., step size 0.0167, time per step 37 s, continuous scan.
(§1) The obtained amorphous form was stored at various conditions, and the PXRD was analyzed after 3 and 7 days:
The obtained pure amorphous form was stored at various conditions, and the PXRD was analyzed after 3 and 7 days:
(§2) The obtained form alpha was stored at various conditions, and the PXRD was analyzed after 3 and 8 days:
(§3) The obtained amorphous form was stored at various conditions of relative humidity, and the PXRD was obtained after 1M (Table 4):
(§4) The obtained amorphous form was stored at various conditions, and the PXRD was obtained after 2M (Table 5):
(§5) XRPD pattern is shown in FIG. 16; SEM image is shown in FIG. 17; DSC thermogram is shown in FIG. 21 and TGA thermogram is shown in FIG. 22. The obtained form alpha was stored at various conditions, and the PXRD was obtained after 8, 14, and 21 days (Table 6): […]

[2] = Dissolution in 50 mM phosphate buffer pH = 7.4 at 37° C.; details: 50 mM phosphate buffer pH = 7.4, 37° C.
Procedure: Samples were prepared and analysed in duplicate. About 20 mg of each sample were weighed into 500 ml Erlenmeyer flask, 200 ml of 50 mM phosphate buffer pH=7.4, previously heated to 37° C. were added and flasks were shaken at 110 rpm for 60 minutes at 37±0.2° C. in an incubator shaker. 3 ml aliquots were taken at 5, 10, 20, 30, 45 and 60 min, filtered through 0.45 μm Chromafil Xtra RC 45/25 syringe filter and analysed by UV/VIS spectrometer (absorbance at 203 nm).
The measurement was performed using the following instruments: • pH/Ion meter PHM 240, MeterLab, Radiometer Analytical • Incubator shaker Innova 4080, New Brunswick Scientific, 19 mm diameter circular orbit • UV/VIS spectrometer Varian Cary 50 Bio, 1 mm quartz cell Results of Eluxadoline samples dissolution in 50 mM phosphate buffer pH=7.4 are summarized in Table 8 below: […]

[3] = % weight loss / water content (TGA, KF) after storage at various relative humidity; details: for % weight loss/water cont. - after 1 M, TGA: TGA up to 190° C.
Procedure: as §1, §2, §3, §4, §5

[4] = Texture analysis / density at 0.2 MPa; details: 200 mg sample compressed in steel mould
Procedure: A simple and low sample consuming method for evaluation of the packing density of powders were obtained as compression profiles under low pressures using a die and a flat-faced punch fitted on a TA-XTplus Texture analyser (Stable Micro Systems Ltd., Godalming, UK). The small amount of 200 mg of sample is compressed in a steel mould (with the rate of displacement 0.03 mm/s). Also, a cyclic procedure (similar to tapping) was performed at maximal compressive displacement 0.5 mm, then retracting, relaxation for 15 s and then repeated compressive steps (altogether up to 20 steps).

[5] = Flow function, FT4 Powder Rheometer, Freeman shear test 9 kPa; details: PSD/μm 10/60/164
Procedure: The Flow function was determined by using FT4 Powder Rheometer, Freeman FT4 instrument, and standard Freeman shear test—9 kPa (using small cell 1 ml), according to method below:
1. Compact to 9 kPa for 60 s
2. Pre shear hold 7 kPa for 16 s
3. Shear test at 7 kPa (Shear at 18°/min for 10°, auto detected peak torque yes)
4. Pre shear hold 6 kPa for 16 s
5. Shear test at 6 kPa (Shear at 18°/min for 10°, auto detected peak torque yes)
6. Pre shear hold 5 kPa for 16 s
7. Shear test at 5 kPa (Shear at 18°/min for 10°, auto detected peak torque yes)
8. Pre shear hold 4 kPa for 16 s
9. Shear test at 4 kPa (Shear at 18°/min for 10°, auto detected peak torque yes)
10. Pre shear hold 3 kPa for 16 s
11. Shear test at 3 kPa (Shear at 18°/min for 10°, auto detected peak torque yes)

[6] = Specific surface area (SSA), BET nitrogen
Procedure: Specific Surface Area (SSA) measurements (Bet Nitrogen) were determined using a Micromeritics ASAP 2000, specific surface area analyzer. Samples were subjected to the BET nitrogen adsorption analysis to determine the specific surface of the samples.
Sample tube: 10 cc bulb with ½″ stem
Sample mass: Approximately ½ full cell
Sample preparation: Degassing with nitrogen
Outgassing conditions: 40° C. (30 min)
Isothermal collection point: 20 adsorption points, in the range 0-1 P/P0
Isothermal data analysis range: 5 point BET in the range 0.05-0.20 P/P0
Equilibration interval: 5 s
Equilibration time out: 600 s

[7] = Thermal stability, heating in a vacuum dryer at 50° C. and 100° C. (XRPD, HPLC); details: for XRPD / HPLC/Area % (start: 99.88): vacuum dryer
Procedure: Samples of Eluxadoline alpha (5 g) were subjected to heating in a vacuum dryer at 50° C. and 100° C., for different periods of time.

With COc1ccc(CN(C(=O)[C@@H](N)Cc2c(C)cc(C(N)=O)cc2C)[C@@H](C)c2nc(-c3ccccc3)c[nH]2)cc1C(=O)O [Example 11, Eluxadoline] the “PXRD results after 7 days” value ([1]; 0% RH, 7 days) was “amorphous”, the “PXRD results after 7 days” value ([1]; 20% RH, 7 days) was “amorphous” and the “PXRD results after 7 days” value ([1]; 40% RH, 7 days) was “amorphous”. For the same molecule, the “PXRD results after 7 days” value ([1]; 60% RH, 7 days) was “amorphous”, the “PXRD results after 7 days” value ([1]; 80% RH, 7 days) was “amorphous” and the “PXRD results after 7 days” value ([1]; 100% RH, 7 days) was “amorphous”.
In the case of COc1ccc(CN(C(=O)[C@@H](N)Cc2c(C)cc(C(N)=O)cc2C)[C@@H](C)c2nc(-c3ccccc3)c[nH]2)cc1C(=O)O [Example 20], the “% dissolved” value ([2]; 5 min) is reported as 63.21%, the “% dissolved” value ([2]; 10 min) is reported as 81.56% and the “% dissolved” value ([2]; 20 min) is reported as 91.46%. For the same molecule, the “% dissolved” value ([2]; 30 min) was 93.81%, the “% dissolved” value ([2]; 45 min) was 94.48% and the “% dissolved” value ([2]; 60 min) was 94.50%. For the same molecule, the “PXRD results - after 1 M” value ([1]; 0% RH, 1 M) was “amorphous”, the “PXRD results - after 1 M” value ([1]; 20% RH, 1 M) was “amorphous” and the “PXRD results - after 1 M” value ([1]; 40% RH, 1 M) was “amorphous”. The “PXRD results - after 1 M” value ([1]; 60% RH, 1 M) was “amorphous”, the “PXRD results - after 1 M” value ([1]; 80% RH, 1 M) was “amorphous” and the “PXRD results - after 1 M” value ([1]; 100% RH, 1 M) was “amorphous”. For the same molecule, the “PXRD results - after 1 M” value ([1]; As is) was “amorphous”, the “% weight loss/water cont. - after 1 M, TGA” value ([3]; 0% RH, 1 M) was “TGA-7.42%” and the “% weight loss/water cont. - after 1 M, TGA” value ([3]; 20% RH, 1 M) was “TGA-8.42%”. For the same molecule, the “% weight loss/water cont. - after 1 M, TGA” value ([3]; 40% RH, 1 M) was “TGA-9.34%”, the “% weight loss/water cont. - after 1 M, TGA” value ([3]; 60% RH, 1 M) was “TGA-10.36%” and the “% weight loss/water cont. - after 1 M, TGA” value ([3]; 80% RH, 1 M) was “TGA-12.89%”. For the same molecule, the “% weight loss/water cont. - after 1 M, TGA” value ([3]; 100% RH, 1 M) was “TGA-15.23%” and the “% weight loss/water cont. - after 1 M, TGA” value ([3]; As is) was “TGA-5.79%”.
For COc1ccc(CN(C(=O)[C@@H](N)Cc2c(C)cc(C(N)=O)cc2C)[C@@H](C)c2nc(-c3ccccc3)c[nH]2)cc1C(=O)O [Eluxadoline alpha-lower particle size, Eluxadoline], the “Density at 0.2 MPa” value [4] was 0.5190 mg/mm^3.
With COc1ccc(CN(C(=O)[C@@H](N)Cc2c(C)cc(C(N)=O)cc2C)[C@@H](C)c2nc(-c3ccccc3)c[nH]2)cc1C(=O)O [Example 10, Eluxadoline] the “PXRD results - after 7 days” value ([1]; 0% RH, 7 days) was “amorphous”, the “PXRD results - after 7 days” value ([1]; 20% RH, 7 days) was “amorphous” and the “PXRD results - after 7 days” value ([1]; 40% RH, 7 days) was “amorphous”. The “PXRD results - after 7 days” value ([1]; 60% RH, 7 days) was “amorphous”, the “PXRD results - after 7 days” value ([1]; 80% RH, 7 days) was “amorphous” and the “PXRD results - after 7 days” value ([1]; 100% RH, 7 days) was “amorphous”. For the same molecule, the “PXRD results - after 7 days” value ([1]; As is) was “amorphous”, the “% weight loss/water cont. - after 7 days, TGA” value ([3]; 0% RH, 7 days) was “TGA-7.96%” and the “% weight loss/water cont. - after 7 days, KF” value ([3]; 20% RH, 7 days) was 9.01%. For the same molecule, the “% weight loss/water cont. - after 7 days, TGA” value ([3]; 20% RH, 7 days) was 7.96%, the “% weight loss/water cont. - after 7 days, KF” value ([3]; 40% RH, 7 days) was 9.11% and the “% weight loss/water cont. - after 7 days, TGA” value ([3]; 40% RH, 7 days) was 8.15%. For the same molecule, the “% weight loss/water cont. - after 7 days, KF” value ([3]; 60% RH, 7 days) was 9.91%, the “% weight loss/water cont. - after 7 days, TGA” value ([3]; 60% RH, 7 days) was 8.88% and the “% weight loss/water cont. - after 7 days, KF” value ([3]; 80% RH, 7 days) was 13.30%. The “% weight loss/water cont. - after 7 days, TGA” value ([3]; 80% RH, 7 days) was 11.88%, the “% weight loss/water cont. - after 7 days, KF” value ([3]; 100% RH, 7 days) was 15.69% and the “% weight loss/water cont. - after 7 days, TGA” value ([3]; 100% RH, 7 days) was 15.03%. For the same molecule, the “% weight loss/water cont. - after 7 days, TGA” value ([3]; As is) was “TGA-5.97%”.
In the case of COc1ccc(CN(C(=O)[C@@H](N)Cc2c(C)cc(C(N)=O)cc2C)[C@@H](C)c2nc(-c3ccccc3)c[nH]2)cc1C(=O)O [Example 12, 5-(((S)-2-amino-3-(4-carbamoyl-2,6-dimethylphenyl)-N—((S)-1-(4-phenyl-1H-imidazol-2-yl)ethyl)propanamido)methyl)-2-methoxybenzoic acid], the “PXRD results after 8 days” value ([1]; 0% RH) is reported as “alpha”, the “PXRD results after 8 days” value ([1]; 20% RH) is reported as “alpha” and the “PXRD results after 8 days” value ([1]; 40% RH) is reported as “alpha”. The “PXRD results after 8 days” value ([1]; 60% RH) was “alpha”, the “PXRD results after 8 days” value ([1]; 80% RH) was “alpha” and the “% weight loss after 8 days by TGA” value ([3]; as is, TGA up to 121° C.) was “TGA* = 1.29%”.
For COc1ccc(CN(C(=O)[C@@H](N)Cc2c(C)cc(C(N)=O)cc2C)[C@@H](C)c2nc(-c3ccccc3)c[nH]2)cc1C(=O)O [amorphous Eluxadoline, Eluxadoline], the “changes of samples exposed to RH (stability of amorphous form)” value ([1]; RH 0-10% for a 7 day period) was “did not show any changes”.
For COc1ccc(CN(C(=O)[C@@H](N)Cc2c(C)cc(C(N)=O)cc2C)[C@@H](C)c2nc(-c3ccccc3)c[nH]2)cc1C(=O)O [Example 21], the “Classification of powder flowability after Jenike” value [5] was “Free-flowing (10 < FF)”, the “Flow Function, (FF)” value ([5]; shear test 9 kPa) was 10.08 and the “PXRD results - after 2 M” value ([1]; 0% RH, 2 M) was “amorphous”. For the same molecule, the “PXRD results - after 2 M” value ([1]; 20% RH, 2 M) was “amorphous”, the “PXRD results - after 2 M” value ([1]; 40% RH, 2 M) was “amorphous” and the “PXRD results - after 2 M” value ([1]; 60% RH, 2 M) was “amorphous”. For the same molecule, the “PXRD results - after 2 M” value ([1]; 80% RH, 2 M) was “amorphous”, the “PXRD results - after 2 M” value ([1]; 100% RH, 2 M) was “amorphous” and the “PXRD results - after 2 M” value ([1]; As is) was “amorphous”. The SSA [6] was 1.243 m^2/g, the “% weight loss/water cont. after 2 M KF” value ([3]; 0% RH, 2 M) was 8.56% and the “% weight loss/water cont. after 2 M KF” value ([3]; 20% RH, 2 M) was 9.17%. For the same molecule, the “% weight loss/water cont. after 2 M KF” value ([3]; 40% RH, 2 M) was 10.50%, the “% weight loss/water cont. after 2 M KF” value ([3]; 60% RH, 2 M) was 11.93% and the “% weight loss/water cont. after 2 M KF” value ([3]; 80% RH, 2 M) was 14.15%. For the same molecule, the “% weight loss/water cont. after 2 M KF” value ([3]; 100% RH, 2 M) was 14.54% and the “% weight loss/water cont. after 2 M KF” value ([3]; As is) was 4.42%.
With COc1ccc(CN(C(=O)[C@@H](N)Cc2c(C)cc(C(N)=O)cc2C)[C@@H](C)c2nc(-c3ccccc3)c[nH]2)cc1C(=O)O [Eluxadoline alpha form, Eluxadoline] the SSA ([6]; listed as Eluxadoline form alpha) was “about 9.63 m^2/g”, the XRPD ([7]; 50 ° C., 1 h) was “alpha” and the XRPD ([7]; 50 ° C., 2 h) was “alpha”. For the same molecule, the XRPD ([7]; 50 ° C., 3 h) was “alpha”, the “HPLC/Area % (start: 99.88)” value ([7]; 50 ° C., 3 h) was 99.91 Area % and the XRPD ([7]; 100 ° C., 1 h) was “alpha”. For the same molecule, the XRPD ([7]; 100 ° C., 2 h) was “alpha”, the XRPD ([7]; 100 ° C., 3 h) was “alpha” and the “HPLC/Area % (start: 99.88)” value ([7]; 100 ° C., 3 h) was 99.91 Area %. For the same molecule, the “stability by XRPD and HPLC on heating” value ([7]; vacuum dryer at 50° C. and 100° C., different periods of time) was “stable”.
